For data set [1], the system named is horses. The experiment in a line: Heart rate during treadmill exercise training with oral L-carnitine supplementation. It counts as in vivo, horse.
Data set [2] is described as follows: LC concentration in M. glutaeus med. muscle biopsies. It counts as in vivo, horse. The settings on record: horses. An excerpt:
LC was obtained as commercially available free L-carnitine (Carniking® from Lonza Ltd.). After a first standardised exercise test (SET) during the whole experiment period (5 weeks training, 15 weeks detraining) a group of 4 Trotters received 10 g of LC/d offered with concentrate in two feed portions daily, as essentially described in example 1, while a group of 4 Trotters served as non-supplemented controls. All horses were two years old and were descendants from 1 stallion. The treadmill training program consisted of 8 aerobic, static exercise sessions (15 min warmup, 60 min exercise at an intensity level which maintained a blood lactate concentration of 2.0 mmol/l (VLA 2.0)) and 8 anaerobic exercise sessions (15 min, warm up, followed by 15 steps of graded exercise intensities of 1 min duration each, starting at VLA 4.0). During the dynamic exercises running speed was incremented every minute by 0.3 m/s and ranged from about of 5 m/s to 14 m/s. […]
Muscle biopsies from M. glutaeus med. and venous blood samples were collected at the beginning (1st SET) and the end of training (2nd SET) and at the beginning and the end of the 1st (beginning of training) and 8th (end of training) static and dynamic exercise and after 5 and 10 weeks of detraining. […] Heart rates were continuously monitored during exercises with a polar horse tester.

The test system of data set [3] is horses. Kind of data set: Plasma glucose and blood lactate during standardised exercise test (SET). It counts as in vivo, horse. The settings on record: 10 g LC/d.
In data set [4] the test system is rats. Kind of data set: Training-induced bradycardia in rats. It counts as in vivo, rat.
Data set [5] relates to swine. Kind of data set: Training-induced bradycardia in swine. It counts as in vivo.

Consider `C[N+](C)(C)C[C@H](O)CC(=O)[O-]` [L-carnitine], for which the “Heart rate at end of incremented, high intensity (anaerobic) exercise, post-training” value in data set [1] (N=4, 10 g LC/d, end of 15 steps of +0.3 m/s, after 5 weeks training, mean) is given as 196 beats/min. The “Heart rate at end of incremented, high intensity (anaerobic) exercise, pre-training” value in data set [1] (N=4, 10 g LC/d, end of 15 steps of +0.3 m/s, pre-training, mean) is listed as 209 beats/min. Further, the “Heart rate at start of incremented, high intensity (anaerobic) exercise, post-training” value in data set [1] (N=4, 10 g LC/d, start at VLA 4.0, after 5 weeks training, mean) is given as 143 beats/min. The “Heart rate at start of incremented, high intensity (anaerobic) exercise, pre-training” value in data set [1] (N=4, 10 g LC/d, start at VLA 4.0, pre-training, mean) is 150 beats/min. For the same compound, in data set [1] (SET, 10 g LC/d for 5 weeks training, FIG. 2), the “Decline of post-training heart rate at equivalent work loads versus start of training” value is 7 beats/minute. For the same compound, in data set [1] (SET, treadmill speeds 5 to 9 m/s, 10 g LC/d, 5 weeks), the “Change in heart rate at increasing exercise work loads, end versus start of training” value is recorded as “significant (p<0.001) reduction in heart rate”. Further, in data set [1] (Trotters N=4, 10 g LC/d oral, 60 min treadmill at VLA 2.0, after 5 weeks training, mean ± SD), the “Heart rate during moderate intensity (aerobic) exercise, post-training” value stood at 122 ± 6 beats/min. Besides, the “Heart rate during moderate intensity (aerobic) exercise, pre-training” value in data set [1] (Trotters N=4, 10 g LC/d oral, 60 min treadmill at VLA 2.0, pre-training, mean ± SD) was 130 ± 7 beats/min. Further, in data set [2] (10 g LC/d oral, five weeks of supplementation), the “Elevation of LC concentration in M. glutaeus med.” value is “about 50%”. Besides, in data set [2] (10 g LC/d, whole detraining period), the “LC concentration in the muscle during detraining period” value is “remained at this high level”. Moreover, the “Exercise-induced increase of blood lactate” value in data set [3] (FIG. 1) was “lower”. In addition, the “Concentration of glucose in plasma during exercise, second SET versus first SET” value in data set [3] (end of 5 weeks training) was “lower concentrations of glucose in plasma during exercise”. Moreover, the “Enhancement of training-induced bradycardia” value in data set [4] and in data set [5] was “enhancement of training-induced bradycardia was equally achieved” throughout.

The values above are taken from patent US6342526B1, “Method for enhancing or achieving training-induced bradycardia with Carnitine” (Lonza Ltd., priority 2000, dated 2002).
